Results taken from patent publication US20020120098A1, “Enhanced stimulation of erythropoiesis” (priority 1996, published 2002).

What was measured:
CFU-E = assay: Colony formation assay (CFA), cord blood LDMNC: CFU-E colonies; assay type: cell-based, human; details: for CFU-E progenitor number, fold increase: 2 U/ml Epo, ambient O2, vs vehicle control; for fold increase in CFU-E at 5% O2: 5% O2, 2 U/ml Epo, 1.0 mg/ml HAo or HEMOLINK, 100 μM hemin, relative to untreated controls at ambient O2
Protocol: This technique, referred to as the colony formation assay (CFA), is the most widely used biological assay to identify and enumerate erythroid progenitors present in hematopoietic tissue such as blood and bone marrow. Cell populations containing erythroid progenitors are plated in semi-solid suspensions of methyl cellulose, agar, low melting agarose or related substances in nutrient culture medium containing 1-3 U/ml Epo and 10 ng/ml IL-3 to specifically stimulate erythroid progenitors. Plates are incubated at 37° C. for 14 days during which time the erythroid progenitors form characteristic hemoglobinized (red) colonies. Two distinct but related erythroid progenitors can be distinguished based on colony size and morphology: BFU-E, the most primitive recognizable erythroid progenitor forms large multilobular colonies whereas the more mature CFU-E forms smaller spherical colonies.
Adult hemoglobin was purified according to U.S Pat. Nos. 5,439,591 and 5,545,328 to obtain HAo and HEMOLINK™ was prepared from HAo according to U.S. Pat. No. 5,532,352. Human umbilical cord blood intended for discard was collected from the umbilical vein of placentas immediately postpartum into 10 ml vacutainer tubes containing 143 USP units/ml sodium heparin. Low density mononuclear cells were separated from red blood cells by centrifugation over a 1.077 g/ml density gradient Cells removed from the plasma/density gradient interface were incubated overnight in a tissue culture flask with 10 ml cell culture medium containing 10% fetal bovine serum, and non-adherent LDMNC were further purified with an additional density gradient step. The LDMNC were then plated into colony formation assays (CFA) on the second day of isolation. In the CFA, LDMNC were plated at a density of 1×10^5 cells/ml in Iscoves modified Dulbeccos cell culture medium containing 0.8% methyl-cellulose, 30% fetal bovine serum, 1% bovine serum albumin, 0.1 mM 2-mercaptoethanol and 2 mM L-glutamine. Unless indicated otherwise, under standard CFA conditions 2 U/ml Epo and 10 ng/ml IL-3 are added to the formulation to stimulate hematopoietic progenitor growth, specifically BFU-E, CFU-E and CFU-GM.
Each condition was tested in duplicate in from 2-18 independent experiments. Cultures were maintained in a humidified incubator at 37° C., 5% CO2 and ambient oxygen tensions. The number of hematopoietic progenitors was scored between days 13-15 by counting the number and types of colonies present.
Erythroid progenitor colony formation assays were conducted as described in Example 1 except that cultures were incubated at either ambient oxygen tensions (˜20% O2) or 5% O2. The reduced oxygen tension of 5% O2 approximates the physiological intravascular oxygen tension in mammals. The mean fold increase in cord blood BFU-E, CFU-E and CFU-GM progenitor number at 5% O2 produced by 1.0 mg/ml HAo (15.6 μM; n=11) or HEMOLINK™ (15.6 μM; n=6), 100 μM hemin (n=10), 250 μM FeCl3 (n=6) or no addition (n=17-18), is shown FIG. 2. Results are expressed relative to control cells treated only with respective vehicles and cultured at ambient oxygen tensions (˜20% O2; fold expansion=1.0; *p<0.05, **p<0.01).
Erythroid progenitor colony formation assays were conducted as described in Example 1 except that cultures were initiated in the presence of Epo concentrations ranging from 0-2 U/ml. The mean fold increase in cord blood BFU-E, CFU-E and CFU-GM progenitor number produced by 1.0 mg/ml HAo (15.6 μM; n=9) or HEMOLINK™ (15.6 μM; n=6), 100 μM hemin (n=8), 250 μM FeCl3 (n=6), or no addition (n=9-10) in the presence of reduced Epo concentrations (0.2 U/ml) is shown in FIG. 3. Cultures were maintained at ambient oxygen tensions (˜20% O2) for 14 days. Results are expressed relative to control cells at 2 U/ml Epo treated only with the respective vehicles (solid line at fold expansion=1.0; *p<0.05, **p<0 01). Erythroid progenitor colonies were undetectable in the absence of Epo. […]

erythroid progenitors = assay: Colony formation assay, adult peripheral blood LDMNC: erythroid progenitors overall; assay type: cell-based, human; details: for growth of erythroid progenitors in the absence of Epo, adult blood: 0 U/ml Epo; for erythroid progenitor number, adult blood, 5% O2 and 0.2 U/ml Epo (in words): 5% O2, 0.2 U/ml Epo, over untreated controls under the same conditions
Protocol: Blood was collected with informed consent from the antecubital vein of healthy adult human volunteers into vacutainers containing 143 USP U/ml sodium heparin. Low density mononuclear cells (LDMNC) were isolated by centrifugation over a density gradient as described in Example 1. Plastic adherent cells were removed by an overnight incubation in a tissue culture flask and the non-adherent cells were placed directly in a CFA. Conditions for the CFA are similar to those described in Examples 1-4.
Mean fold increase in adult blood BFU-E, CFU-E and CFU-GM progenitor number in the presence of reduced Epo (0.2 U/ml) (n=3) at 20% O2 is shown in FIG. 11 with and without (no addition) the additives used in FIG. 9. Results are expressed relative to control cells at 2 U/ml Epo treated only with the respective vehicles (solid line at fold expansion=1.0). […] As with cord blood, CFU-GM numbers were unaffected by reductions in Epo. The addition of HAo or HEMOLINK™ to CFAs containing 0.2 U/ml Epo stimulated ˜4.5- and ˜3.5-fold increases in BFU-E and CFU-E, respectively, compared to untreated controls (no addition), restoring the progenitor number to that obtained at 2 U/ml Epo. Hemin stimulated the greatest increase in BFU-E and CFU-E (˜9- and ˜6-fold, respectively) at 0.2 U/ml Epo versus the untreated controls (no addition). FeCl3 stimulated only a ˜2-fold increase in erythroid progenitor number at 0.2 U/ml Epo.
Mean fold increase in adult blood BFU-E, CFU-E and CFU-GM progenitor number at 5% O2 in the presence of reduced Epo (0.2 U/ml) (n=3) is shown in FIG. 12 with and without the additives used in FIG. 9. Results are expressed relative to control cells at 2 U/ml Epo treated only with the respective vehicles and cultured at ambient oxygen tensions (˜20% O2) for 14 days (solid line at fold expansion=1.0). The number of erythroid progenitors stimulated at 5% O2 and 0.2 U/ml Epo was similar to that obtained with 2.0 U/ml Epo maintained at ambient oxygen tensions (no addition).

Compound	CFU-E progenitor number, fold increase (CFU-E; dose 1.0 μM) [fold]	CFU-E progenitor number, fold increase (CFU-E; dose 10 μM)	CFU-E progenitor number, fold increase (CFU-E; dose 250 μM) [fold]	growth of erythroid progenitors in the absence of Epo, adult blood (erythroid progenitors)	fold increase in erythroid progenitor number, adult blood, 0.2 U/ml Epo (erythroid progenitors; 0.2 U/ml Epo, ~20% O2, 250 μM FeCl3) [fold]	fold increase in CFU-E at 5% O2 (CFU-E) [fold]	CFU-E progenitor number, fold increase (CFU-E; dose 10 μg/ml) [fold]	CFU-E progenitor number, fold increase (CFU-E; dose 100 μg/ml) [fold]	CFU-E progenitor number, fold increase (CFU-E; dose 500 μg/ml)	erythroid progenitor number, adult blood, 5% O2 and 0.2 U/ml Epo (in words) (erythroid progenitors)	CFU-E progenitor number, fold increase (CFU-E; dose 64 μM) [fold]	protection of CFU-E from ganciclovir toxicity (CFU-E; 1 mg/ml HEMOLINK plus 0-100 μM ganciclovir)
[Cl][Fe]([Cl])[Cl] [FeCl3]	1.0	1.2 fold	1.1	could not support the growth of erythroid progenitors in the absence of Epo	~2	–	–	–	–	–	–	–
HAo: adult human hemoglobin obtained from red blood cells and purified by displacement chromatography; uncross linked product	–	–	–	could not support the growth of erythroid progenitors in the absence of Epo	–	~3	1.2	1.5	*1.4 fold	stimulated further increases in erythroid progenitor number	–	–
C=CC1=C(C)C2=Cc3c(C=C)c(C)c4[n]3[Fe-2]35([Cl])[n]6c(c(C)c(CCC(=O)O)c6=CC6=[N+]3C(=C4)C(C)=C6CCC(=O)O)=CC1=[N+]25 [hemin]	1.2	*1.6 fold	2.2	could not support the growth of erythroid progenitors in the absence of Epo	–	~3	–	–	–	stimulated further increases in erythroid progenitor number	1.8	–
HEMOLINK™: chemically crosslinked hemoglobin prepared by treating human hemoglobin with a polyaldehyde (O-raffinose)	–	–	–	could not support the growth of erythroid progenitors in the absence of Epo	–	~3	–	–	–	stimulated further increases in erythroid progenitor number	–	protects CFU-E
